Target: T1, E781A_1/2A mutant receptor (UniProt P35439+Q12879, E781A)
T1 construct: expressed in transfected cells; host or cells: Xenopus oocytes (cRNA injection)
Test: TEVC glutamate dose-response, GluN1 E781A mutant with wild type GluN2A
Format: cell-based
Design: Glutamate efficacy: unit not given here
Description: NMDA receptor constructs: cDNA encoding the NMDA receptor1a subunit (GluN1a) was obtained from Dr. Nakanishi (Kyoto, Japan). cDNA encoding the GluN2B (pci_sepGluN2B), originally developed in the Malinow lab,[33] was purchased from Addgene (cat# 23998), Cambridge, MA. cDNA encoding the GluN2C and GluN2D were purchased from GenScript, New Jersey, USA. Mutated GluN1, 2A and 2B cDNA constructs capable of assembling as GluN1/2A/2B triheteromeric (1/2AB) receptors[34] were obtained from Dr. Paoletti (Laboratoire de Neurobiologie, CNRS). These constructs have been previously tested for 1/2AB receptor activity of GluN1/2A receptor‐selective potentiators.[35] […] Plasmids were linearized with NotI (GluN1a and all five GluN1 mutants) or Avrll (GluN2B), or BstB1 (GluN2C and GluN2D) and transcribed in vitro with T7 (GluN1a, GluN1/2A, GluN2B, GluN2C & GluN2D), and SP6 (GluN1 mutants) RNA polymerase using the mMessage mMachine transcription kits (Invitrogen by Thermo Fisher Scientific).
Electrophysiological responses were measured using a standard two‐microelectrode voltage‐clamp workstation (Warner Instruments model OC‐725C) designed to provide a fast clamp of large cells. The recording buffer contained 116 mM NaCl, 2 mM KCl, 0.3 mM BaCl2, and 5 mM HEPES, pH 7.4. Response magnitude was determined in Xenopus oocytes expressing different NMDA receptor subunits (GluN1/2A, 1/2B, 1/2C, 1/2D, and 1/2A/2B) by the steady plateau response elicited by bath application of different agonist concentrations. […] All data points were obtained from the steady state currents unless stated otherwise. Dose–response relationships were fit to an appropriate curve‐fitting equation using GraphPad Prism‐7. Non‐linear regression was used to calculate EC50, IC50, and fold change or percentage maximal response. Curves were fit using the following equations as performed in the previous studies, [37]: Y=100/1+10^LogEC50−XorY=Bottom+Top−Bottom/1+10^LogEC50−X . Statistical significance was determined at the overall alpha level 0.05, using appropriate statistical methods as described in all figure captions. […]

T1 sequence (Q12879 23-1464, other chains not shown): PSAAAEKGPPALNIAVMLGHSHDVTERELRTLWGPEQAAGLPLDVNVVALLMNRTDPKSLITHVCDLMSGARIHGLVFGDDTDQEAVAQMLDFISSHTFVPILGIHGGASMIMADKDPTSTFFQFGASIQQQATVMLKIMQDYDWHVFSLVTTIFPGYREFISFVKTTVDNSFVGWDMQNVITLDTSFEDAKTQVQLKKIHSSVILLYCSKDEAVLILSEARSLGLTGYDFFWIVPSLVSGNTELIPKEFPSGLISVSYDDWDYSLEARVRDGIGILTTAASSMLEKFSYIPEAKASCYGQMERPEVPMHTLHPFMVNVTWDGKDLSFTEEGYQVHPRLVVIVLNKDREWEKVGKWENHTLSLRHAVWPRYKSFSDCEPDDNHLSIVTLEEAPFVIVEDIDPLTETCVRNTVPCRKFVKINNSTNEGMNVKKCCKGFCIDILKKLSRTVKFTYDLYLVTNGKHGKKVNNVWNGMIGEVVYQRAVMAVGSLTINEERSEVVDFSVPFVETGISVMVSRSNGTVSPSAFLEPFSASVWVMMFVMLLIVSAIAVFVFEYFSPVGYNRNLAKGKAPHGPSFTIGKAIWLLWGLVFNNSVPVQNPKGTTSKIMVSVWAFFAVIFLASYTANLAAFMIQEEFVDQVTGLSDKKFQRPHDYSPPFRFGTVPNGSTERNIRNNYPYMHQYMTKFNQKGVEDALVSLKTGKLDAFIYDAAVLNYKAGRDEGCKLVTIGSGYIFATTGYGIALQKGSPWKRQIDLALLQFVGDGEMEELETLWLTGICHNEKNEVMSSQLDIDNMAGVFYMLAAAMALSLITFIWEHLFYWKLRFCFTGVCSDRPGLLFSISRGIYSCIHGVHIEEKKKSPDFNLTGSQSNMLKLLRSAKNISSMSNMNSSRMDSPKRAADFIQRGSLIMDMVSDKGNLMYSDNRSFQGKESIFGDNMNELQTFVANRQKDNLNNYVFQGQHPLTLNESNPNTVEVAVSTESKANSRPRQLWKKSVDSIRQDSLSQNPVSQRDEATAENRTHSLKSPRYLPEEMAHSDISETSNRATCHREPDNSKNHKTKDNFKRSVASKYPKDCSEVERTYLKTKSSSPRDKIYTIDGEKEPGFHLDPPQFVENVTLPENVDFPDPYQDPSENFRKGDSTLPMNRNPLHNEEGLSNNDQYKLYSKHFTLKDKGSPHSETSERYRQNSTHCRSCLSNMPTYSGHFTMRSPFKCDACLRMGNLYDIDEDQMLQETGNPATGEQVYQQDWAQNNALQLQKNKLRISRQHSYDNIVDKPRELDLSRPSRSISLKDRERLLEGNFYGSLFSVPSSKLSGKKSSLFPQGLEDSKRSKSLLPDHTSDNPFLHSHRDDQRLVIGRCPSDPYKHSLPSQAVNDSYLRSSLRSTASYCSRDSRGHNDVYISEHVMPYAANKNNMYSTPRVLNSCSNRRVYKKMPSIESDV

SMILES: O=C(NC(=S)N1CCCCC1c1cccnc1)c1ccc(F)cc1 (stereo not drawn) [CNS4]
- Glutamate efficacy, E781A mutant compared to wild type 1/2A (absence of glycine, presence of CNS4, 100 μM glutamate): ~ 34 fold
- 100 μM glutamate induced relative current amplitude (glutamate efficacy) (absence of glycine, presence of CNS4, n = 6 (3), p = .001 vs wild type): 1.39 ± 0.29 fold
- Glutamate efficacy (in the presence of 30 μM glycine and 30 μM CNS4, n = 5 (4), p = .11 vs wild type): 118.5 ± 40.87

Reference: PMC10245146, “CNS4 causes subtype‐specific changes in agonist efficacy and reversal potential of permeant cations in NMDA receptors” (Pharmacology Research & Perspectives, 2023)
